Source: US20260028364A1, “CATIONIC CHROMENONES AND THEIR USE IN ONCOLOGY” (FLORATEK PHARMA S.A., priority 2022, published 2026)

Columns and labels:
Type in all cases: cell-based
NCI-H1299 = test: CellTiter-Glo cell viability, NCI-H1299; conditions: Homo sapiens, NCI-H1299; H1299 cells, 72 h with compound
Experimental: (§1) Antitumor activity against a panel of cancer cell lines Antitumor activity of the compounds was assessed by using the CellTiter-Glow® Luminescent Cell Viability assay (Promega #G7572) according to the manufacturer's instructions. The compounds were tested at 5 or 6 concentrations in 1:2 dilution increments (highest concentration 10 µM) in triplicate well conditions.
(§2) Tumor cells were grown at 37° C. in a humidified atmosphere with 5% CO2 in RPMI 1640 or DMEM medium, supplemented with 10% (v/v) fetal calf serum and 50 μg/ml gentamicin for up to 20 passages, and were passaged once or twice weekly. Cells were harvested using TrypLE or PBS buffer containing 1 mM EDTA, and the percentage of viable cells is determined using a cell counter.
(§3) Cells were harvested from exponential phase cultures, counted and plated in 96 well flat-bottom microtiter plates at a cell density depending on the cell line's growth rate (4,000-20,000 cells/well depending on the cell line's growth rate) in RPMI 1640 or DMEM medium supplemented with 10% (v/v) fetal calf serum and 50 μg/ml gentamicin (140 μl/well). Cultures were incubated at 37° C. and 5% CO2 in a humidified atmosphere. After 24 h, 10 μl of test compounds or control medium are added, and left on the cells for another 72 h. Compounds were serially diluted in DMSO, transferred in cell culture medium, and added to the assay plates. The DMSO concentration was kept constant at <0.2% v/v across the assay plate. Viability of cells was quantified by the CellTiter-Glow® Luminescent Cell Viability assay (Promega #G7572). Luminescence was measured with the microplate luminometer (En Vision Perkin Elmer).
(§4) Sigmoidal concentration-response curves were fitted to the data points (test-versus-control, T/C values) obtained for each tumor model using Graph Pad prism 5.02 software. IC50 values are reported as absolute IC50 values, being the concentration of test compound at the intersection of the concentration-response curves with T/C=50%.

MCF-7 = test: CellTiter-Glo cell viability, MCF-7; conditions: Homo sapiens, MCF7; MCF-7 cells, 72 h with compound
Experimental: as §1, §2, §3, §4

SK-Mel-5 = test: Caspase-Glo 3/7 apoptosis assay, SK-Mel-5; conditions: SK-Mel-5 cells, 1 μM, 24 h
Experimental: (§5) Apoptosis activity was evaluated using Caspase-Glo 3/7 Assay kit (Promega-G8091) according to the manufacturer's instructions. Cells were grown as above and harvested from exponential phase cultures, counted and plated in 96 black well flat-bottom microtiter plates at a cell density depending on the cell line's growth rate (3,000-10,000 cells/well depending on the cell line's growth rate). Following an overnight incubation, compounds were added to the cell plates at various concentrations (highest at […]) with the DMSO concentration maintained at 0.1% for a 24 h period treatment. 100 μL of Caspase-Glo 3/7 Reagent was added to each well of 96-well plate containing 100 μL culture medium, and after 30 min at room temperature, luminescence was measured with the microplate luminometer (EnVision Perkin Elmer). The induced relative Caspase 3/7 activity of the tested compounds was determined by the following formula: Relative Caspase 3/7 activity (fold increase)=(RLU compound−RLU blank)/(RLU control−RLU blank).

[1] = test system: Toll-like Receptor (TLR4); test: SelectScreen CellSensor pathway inhibition, Toll-like Receptor (TLR4); conditions: Homo sapiens; NFkB-bla THP-1, stimulus LPS
Experimental: Inhibition of various cellular pathways known to be involved in malignancy was tested using the SelectScreen Cell-based Pathway Profiling GeneBLAzer™ cell signaling pathway specific CellSensor™ cell lines ((Thermo Fisher). The assay is based on a beta-lactamase reporter activity which is modulated and can be measured quantitatively and selectively with the LiveBLAzer™-FRET B/G Loading Substrate. SelectScreen Cell-Based Pathway Profiling Service uses XLfit from IDBS. The dose response curve is curve fit to model number 205 (sigmoidal dose-response model). Custom logic was built by Thermo Fisher for the data analysis tool to address the different compound characteristics that can be observed with functional assays.
Toll-like Receptor (TLR4)—NFKB-bla THP-1—Inhibitor Screen, Activated by LPS
NFKB-bla THP-1 cells are thawed and resuspended in Assay Media (RPMI, 0.5% dialyzed FBS, 0.1 mM NEAA, 1 mM Sodium Pyruvate, 100 U/mL/[…] Pen/Strep) to a concentration of 625,000 cells/mL. 32 μL of cell suspension is added to each well of a 384-well TC-Treated assay plate. Cells in Assay Media are incubated for 16-24 hours in the plate at 37° C./5% CO2 in a humidified incubator. […] The plate is read on a fluorescence plate reader.

A-673 = test: CellTiter-Glo cell viability, A-673; conditions: Homo sapiens, A673; A-673 cells, 72 h with compound
Experimental: as §1, §2, §3, §4

A2058 = test: Caspase-Glo 3/7 apoptosis assay, A2058; conditions: A2058 cells, 10 μM, 24 h
Experimental: as §5

A375 = test: Caspase-Glo 3/7 apoptosis assay, A375; conditions: A375 cells, 10 μM, 24 h
Experimental: as §5

HCC-15 = test: CellTiter-Glo cell viability, HCC-15; conditions: HCC15; HCC-15 cells, 72 h with compound
Experimental: as §1, §2, §3, §4

MOLT-4 = test: CellTiter-Glo cell viability, MOLT-4; conditions: Homo sapiens; MOLT-4 cells, 72 h with compound
Experimental: as §1, §2
as §3, with “After 24 h, 10 μl of test compounds or control medium are added, and left on the cells for another 72 h. Compounds were serially diluted in DMSO, transferred in cell culture medium, and added to the assay plates. The DMSO concentration was kept constant at <0.2% v/v across the assay plate.” left out, “Elmer). […]” for “Elmer).”

- IC50 (NCI-H1299): 40 nM
- IC50 (MCF-7): 21 nM
- IC50 [1]: 560 nM
- IC50 (HCC-15): 10 nM
- IC50 (MOLT-4): 400 nM
Compound: COc1ccc2c(=O)c(-c3ccc(CCCC[P+](c4ccccc4)(c4ccccc4)c4ccccc4)cc3)coc2c1OC.[Br-] [SND470, (4-(4-(7,8-Dimethoxy-4-oxo-4H-chromen-3-yl)phenyl)butyl)triphenylphosphonium bromide]
- Fold activation of Caspase 3/7 (SK-Mel-5): 7.22 Fold
- IC50 (A-673): 200 nM
- Fold activation of Caspase 3/7 (A2058): 3.87 Fold
- Fold activation of Caspase 3/7 (A375): 13.98 Fold
